Test results: patent US20260131016A1, “NOVEL AURISTATIN ANALOGS AND IMMUNOCONJUGATES THEREOF” (ADCENTRX THERAPEUTICS INC., priority 2021, published 2026)
Square brackets hold non-standard residues; d marks the D form. Peptide text beside a SMILES is read from it. * marks the point of attachment. Dolaproine = CO[C@@H]([C@@H]1CCCN1)[C@@H](C)C(=O)O; Dil = CC[C@H](C)[C@H](NC)[C@@H](CC(=O)O)OC; NMe2Val = CC(C)[C@@H](C(=O)*)N(C)C

test system: HCC1954 breast ductal carcinoma; experiment: Cell viability (Cell Titer Glo 2.0) in HCC1954, 120 hours; type: cell-based; details: HCC1954 5-Day Assay; N-methylation of the amide between P4 and P5
Procedure: HCC1954 breast ductal carcinoma and T47D cells (ATCC, Manassas, VA, USA) were seeded into 384-well white-walled culture plates and allowed to adhere for 2-4 hours. Cells were then treated at least in duplicate by addition of 5-fold serially diluted test articles prepared at 2× final concentration and incubated at 37° C. for 120 hours. Cell viability following treatment was determined by Cell Titer Glo 2.0 Assay (Promega, Madison, WI, USA) and normalized to non-treated controls. Dose-response relationships were analyzed using GraphPad Prism (La Jolla, CA, USA), and IC50 values were derived from non-linear regression analyses using a 4-parameter logistic equation.

Point of comparison: `CC[C@H](C)[C@@H]([C@@H](CC(=O)N1CCC[C@H]1[C@H](OC)[C@@H](C)C(=O)N[C@@H](Cc1ccccc1)C(=O)OC)OC)N(C)C(=O)[C@@H](NC(=O)[C@H](C(C)C)N(C)C)C(C)C` [Auristatin PHE, reference compound] (NMe2Val-V[Dil][Dolaproine]F-OMe), “IC50[N—Me amide]/IC50[NH-amide]” value 139. Against it:
- CC[C@H](C)[C@@H]([C@@H](CC(=O)N1CCC[C@H]1[C@H](OC)[C@@H](C)C(=O)N[C@H](C)[C@@H](O)c1ccccc1)OC)N(C)C(=O)[C@@H](NC(=O)[C@H](C(C)C)N(C)C)C(C)C [Auristatin E, reference compound] — lower, 23

same assay, conditions: Homo sapiens, HCC1954, 120 h, read-out: IC50 (nM), in vitro potency in HCC1954

`CC[C@H](C)[C@@H]([C@@H](CC(=O)N1CCC[C@H]1[C@H](OC)[C@@H](C)C(=O)N(C)CCc1cccc(N)c1)OC)N(C)C(=O)[C@@H](NC(=O)[C@@H](C)N(C)C)C(C)C` [Compound 3, (S)-N-((3R,4S,5S)-1-((S)-2-((IR,2R)-3-((3-aminophenethyl)(methyl)amino)-1-methoxy-2-methyl-3-oxopropyl)pyrrolidin-1-yl)-3-methoxy-5-methyl-1-oxoheptan-4-yl)-2-((R)-2-(dimethylamino)propanamido)-N,3-dimethylbutanamide] and `CC[C@H](C)[C@@H]([C@@H](CC(=O)N1CCC[C@H]1[C@H](OC)[C@@H](C)C(=O)N(C)CCc1cccc(N)c1)OC)N(C)C(=O)[C@@H](NC(=O)CN(C)C)C(C)C` [Compound 4, (S)-N-((3R,4S,5S)-1-((S)-2-((1R,2R)-3-((3-aminophenethyl)(methyl)amino)-1-methoxy-2-methyl-3-oxopropyl)pyrrolidin-1-yl)-3-methoxy-5-methyl-1-oxoheptan-4-yl)-2-(2-(dimethylamino)acetamido)-N,3-dimethylbutanamide] cannot be ordered by IC50: less than 5 nM for the first, less than 5 nM for the second.

Compared with `CC[C@H](C)[C@@H]([C@@H](CC(=O)N1CCC[C@H]1[C@H](OC)[C@@H](C)C(=O)N(C)CCc1cccc(N)c1)OC)N(C)C(=O)[C@@H](NC(=O)C(C)(C)CN(C)C)C(C)C` [Compound 5, (S)-N-((3R,4S,5S)-1-((S)-2-((1R,2R)-3-((3-aminophenethyl)(methyl)amino)-1-methoxy-2-methyl-3-oxopropyl)pyrrolidin-1-yl)-3-methoxy-5-methyl-1-oxoheptan-4-yl)-2-(3-(dimethylamino)-2,2-dimethylpropanamido)-N,3-dimethylbutanamide], `CC[C@H](C)[C@@H]([C@@H](CC(=O)N1CCC[C@H]1[C@H](OC)[C@@H](C)C(=O)N(C)CCc1cccc(N)c1)OC)N(C)C(=O)[C@@H](NC(=O)C(C)(C)N(C)C)C(C)C` [Compound 7, (S)-N-((3R,4S,5S)-1-((S)-2-((IR,2R)-3-((3-aminophenethyl)(methyl)amino)-1-methoxy-2-methyl-3-oxopropyl)pyrrolidin-1-yl)-3-methoxy-5-methyl-1-oxoheptan-4-yl)-2-(2-(dimethylamino)-2-methylpropanamido)-N,3-dimethylbutanamide] is lower in IC50: 5 to 10 nM for the first, less than 5 nM for the second.

`CC[C@H](C)[C@@H]([C@@H](CC(=O)N1CCC[C@H]1[C@H](OC)[C@@H](C)C(=O)N(C)CCc1cccc(N)c1)OC)N(C)C(=O)[C@@H](NC(=O)[C@@H]1CCCN(C)C1)C(C)C` [Compound 6, (R)-N-((S)-1-(((3R,4S,5S)-1-((S)-2-((IR,2R)-3-((3-aminophenethyl)(methyl)amino)-1-methoxy-2-methyl-3-oxopropyl)pyrrolidin-1-yl)-3-methoxy-5-methyl-1-oxoheptan-4-yl)(methyl)amino)-3-methyl-1-oxobutan-2-yl)-1-methylpiperidine-3-carboxamide] and `CC[C@H](C)[C@@H]([C@@H](CC(=O)N1CCC[C@H]1[C@H](OC)[C@@H](C)C(=O)N(C)CCc1cccc(N)c1)OC)N(C)C(=O)[C@@H](NC(=O)[C@@H]1CCN(C)C1)C(C)C` [Compound 10, (R)-N-((S)-1-(((3R,4S,5S)-1-((S)-2-((IR,2R)-3-((3-aminophenethyl)(methyl)amino)-1-methoxy-2-methyl-3-oxopropyl)pyrrolidin-1-yl)-3-methoxy-5-methyl-1-oxoheptan-4-yl)(methyl)amino)-3-methyl-1-oxobutan-2-yl)-1-methylpyrrolidine-3-carboxamide] cannot be ordered by IC50: greater than 10 nM for the first, greater than 10 nM for the second.

`CC[C@H](C)[C@@H]([C@@H](CC(=O)N1CCC[C@H]1[C@H](OC)[C@@H](C)C(=O)N(C)CCc1cccc(N)c1)OC)N(C)C(=O)[C@@H](NC(=O)[C@@H]1CCCN1C)C(C)C` [Compound 8] and `CC[C@H](C)[C@@H]([C@@H](CC(=O)N1CCC[C@H]1[C@H](OC)[C@@H](C)C(=O)N(C)CCc1cccc(N)c1)OC)N(C)C(=O)[C@@H](NC(=O)[C@H]1CCCN1C)C(C)C` [Compound 9, (R)-N-((S)-1-(((3R,4S,5S)-1-((S)-2-((1R,2R)-3-((3-aminophenethyl)(methyl)amino)-1-methoxy-2-methyl-3-oxopropyl)pyrrolidin-1-yl)-3-methoxy-5-methyl-1-oxoheptan-4-yl)(methyl)amino)-3-methyl-1-oxobutan-2-yl)-1-methylpyrrolidine-2-carboxamide] cannot be ordered by IC50: less than 5 nM for the first, less than 5 nM for the second.

`CC[C@H](C)[C@@H]([C@@H](CC(=O)N1CCC[C@H]1[C@H](OC)[C@@H](C)C(=O)N(C)CCc1cccc(N)c1)OC)N(C)C(=O)[C@@H](NC(=O)[C@H]1CCCCN1C)C(C)C` [Compound 11, (R)-N-((S)-1-(((3R,4S,5S)-1-((S)-2-((1R,2R)-3-((3-aminophenethyl)(methyl)amino)-1-methoxy-2-methyl-3-oxopropyl)pyrrolidin-1-yl)-3-methoxy-5-methyl-1-oxoheptan-4-yl)(methyl)amino)-3-methyl-1-oxobutan-2-yl)-1-methylpiperidine-2-carboxamide] and `CC[C@H](C)[C@@H]([C@@H](CC(=O)N1CCC[C@H]1[C@H](OC)[C@@H](C)C(=O)N(C)CCc1cccc(N)c1)OC)N(C)C(=O)[C@@H](NC(=O)[C@@H]1CCCCN1C)C(C)C` [Compound 13, (S)-N-((S)-1-(((3R,4S,5S)-1-((S)-2-((IR,2R)-3-((3-aminophenethyl)(methyl)amino)-1-methoxy-2-methyl-3-oxopropyl)pyrrolidin-1-yl)-3-methoxy-5-methyl-1-oxoheptan-4-yl)(methyl)amino)-3-methyl-1-oxobutan-2-yl)-1-methylpiperidine-2-carboxamide] cannot be ordered by IC50: less than 5 nM for the first, less than 5 nM for the second.

`CC[C@H](C)[C@@H]([C@@H](CC(=O)N1CCC[C@H]1[C@H](OC)[C@@H](C)C(=O)N(C)CCc1cccc(N)c1)OC)N(C)C(=O)[C@@H](NC(=O)C1(N(C)C)CCC1)C(C)C` [Compound 12, N-((S)-1-(((3R,4S,5S)-1-((S)-2-((IR,2R)-3-((3-aminophenethyl)(methyl)amino)-1-methoxy-2-methyl-3-oxopropyl)pyrrolidin-1-yl)-3-methoxy-5-methyl-1-oxoheptan-4-yl)(methyl)amino)-3-methyl-1-oxobutan-2-yl)-1-(dimethylamino)cyclobutanecarboxamide] and `CC[C@H](C)[C@@H]([C@@H](CC(=O)N1CCC[C@H]1[C@H](OC)[C@@H](C)C(=O)N(C)CCc1ccc(N)cc1)OC)N(C)C(=O)[C@@H](NC(=O)CN(C)C)C(C)C` [Compound 27, (S)-N-((3R,4S,5S)-1-((S)-2-((IR,2R)-3-((4-aminophenethyl)(methyl)amino)-1-methoxy-2-methyl-3-oxopropyl)pyrrolidin-1-yl)-3-methoxy-5-methyl-1-oxoheptan-4-yl)-2-(2-(dimethylamino)acetamido)-N,3-dimethylbutanamide] cannot be ordered by IC50: less than 5 nM for the first, less than 5 nM for the second.

`CC[C@H](C)[C@@H]([C@@H](CC(=O)N1CCC[C@H]1[C@H](OC)[C@@H](C)C(=O)N(C)CCc1ccccc1N)OC)N(C)C(=O)[C@@H](NC(=O)[C@@H](C(C)C)N(C)C)C(C)C` [Compound 15, (S)-N-((3R,4S,5S)-1-((S)-2-((1R,2R)-3-((2-aminophenethyl)(methyl)amino)-1-methoxy-2-methyl-3-oxopropyl)pyrrolidin-1-yl)-3-methoxy-5-methyl-1-oxoheptan-4-yl)-2-((R)-2-(dimethylamino)-3-methylbutanamido)-N,3-dimethylbutanamide] and `CC[C@H](C)[C@@H]([C@@H](CC(=O)N1CCC[C@H]1[C@H](OC)[C@@H](C)C(=O)N(C)CCc1ccccc1N)OC)N(C)C(=O)[C@@H](NC(=O)[C@@H](C)N(C)C)C(C)C` [Compound 17, (S)-N-((3R,4S,5S)-1-((S)-2-((1R,2R)-3-((2-aminophenethyl)(methyl)amino)-1-methoxy-2-methyl-3-oxopropyl)pyrrolidin-1-yl)-3-methoxy-5-methyl-1-oxoheptan-4-yl)-2-((R)-2-(dimethylamino)propanamido)-N,3-dimethylbutanamide] cannot be ordered by IC50: less than 5 nM for the first, less than 5 nM for the second.

With `CC[C@H](C)[C@@H]([C@@H](CC(=O)N1CCC[C@H]1[C@H](OC)[C@@H](C)C(=O)N(C)CCc1ccccc1N)OC)N(C)C(=O)[C@@H](NC(=O)CN(C)C)C(C)C` [Compound 18, (S)-N-((3R,4S,5S)-1-((S)-2-((1R,2R)-3-((2-aminophenethyl)(methyl)amino)-1-methoxy-2-methyl-3-oxopropyl)pyrrolidin-1-yl)-3-methoxy-5-methyl-1-oxoheptan-4-yl)-2-(2-(dimethylamino)acetamido)-N,3-dimethylbutanamide] the IC50 was 5 to 10 nM.
